Active and inactive are the calls of the source. No cut-off for these calls is given here.
How the values were obtained:
[1] = tested on: HCC1806; assay: Inhibition of RSK in human HCC1806 cells assessed as reduction in YB-1 phosphorylation at Ser102 residue at 5 uM incubated for 12 hrs by western blot analysis; format: cell-based
[2] = tested on: HCC1806; assay: Anti-tumor activity against human HCC1806 cells assessed as inhibition of cell proliferation; format: functional, cell-based

| Compound | inhibition [1] | Activity [2] |
| --- | --- | --- |
| O=Cc1ccc(-c2ccncc2-c2ccc(OCc3ccccc3)c(OCc3ccccc3)c2)cc1 | Active |  |
| Cc1ccc(-c2ccncc2-c2ccc(O)c(O)c2)c2ccccc12 | Active | Active |
| Cc1cc(C)cc(-c2ccncc2-c2ccc(O)c(O)c2)c1 | Active |  |
| Clc1ccc(-c2ccncc2-c2ccc(OCc3ccccc3)c(NCc3ccccc3)c2)cc1 | Active |  |
| CN1CCN(c2ccc(-c3ccncc3-c3cc(F)c(O)c(F)c3)cc2)CC1 | Active | Active |

Source: ChEMBL document CHEMBL5143571, “Design, synthesis and anti-breast cancer evaluation of biaryl pyridine analogues as potent RSK inhibitors” (Bioorg Med Chem Lett, 2022)
